In patent US20040044006A1, “Methods of use of quinolone compounds against pneumococcal and haemophilus bacteria” (priority 1999, published 2004):
Converted amounts (≈) assume the structure as drawn. Where two headings read alike, the source gives them in different places.

Columns and labels:
[1] = system: quinolone resistant pneumococci; test: Determination of efflux mechanism: MICs in the presence and absence of reserpine; type: cell-based, Streptococcus pneumoniae; conditions: for lower MICs in the presence of reserpine, fold range over affected strains: 28 quinolone resistant strains; for lower MICs in the presence of reserpine, fold range over affected strains / number of strains with lower MICs in the presence of reserpine / lower MIC in the presence of reserpine (efflux mechanism): 10 μg/ml reserpine; for number of strains with lower MICs in the presence of reserpine: of 28 quinolone resistant strains
Protocol: MICs were determined in the presence and absence of 10 μg/ml of reserpine (Sigma Chemicals, St. Louis, Mo.) as known in the art.
MICs were determined in the presence and absence of […] of reserpine (Sigma Chemicals, St. Louis, Mo., USA) as described previously (Brenwald, et al., Antimicrob. Agents Chemother. 42:2039-2035, 1998 and Davies, et al., Antimicrob. Agents Chemother. 43:1177-1182S, 1999).

[2] = system: penicillin susceptible and resistant pneumococcal strains (2 quinolone resistant); test: Time-kill testing of 12 pneumococcal strains; type: cell-based, Streptococcus pneumoniae; conditions: for concentration at which bactericidal after 24 h: 12 penicillin susceptible and resistant pneumococcal strains, bactericidal = ≧3 log10 cfu/ml (99.9%) reduction
Protocol: For time-kill studies, glass tubes containing 5 ml cation-adjusted Mueller-Hinton broth (Difco)+5% lysed horse blood with doubling antibiotic concentrations were inoculated with 5×10^5 to 5×10^6 cfu/ml and incubated at 35° C. in a shaking water bath. […] Growth controls with inoculum but no antibiotic were included with each experiment (Pankuch, et al., Antimicrob. Agents Chemother. 38:2065-2072, 1994; Pankuch, et al., Antimicrob. Agents Chemother. 40:1653-1656, 1996).
Lysed horse blood was prepared as described previously. The bacterial inoculum was prepared by diluting a 16 h broth (medium as above) culture in the same medium. Dilutions required to obtain the correct inoculum (5×10^5-5×10^6 cfu/ml) were determined by prior viability studies using each strain (Pankuch, et al., Antimicrob. Agents Chemother. 38:2065-2072, 1994; Pankuch, et al., Antimicrob. Agents Chemother. 40: 1653-1656, 1996).
To inoculate each tube of serially diluted antibiotic, 50 μl of diluted inoculum was delivered by pipette beneath the surface of the broth. Tubes were then vortexed and plated for viability counts within 10 min (approximately 0.2 h). The original inoculum was determined by using the untreated growth control. Only tubes containing an initial inoculum within the range of 5×10^5 to 5×10^6 cfu/ml were acceptable (Pankuch, et al., Antimicrob. Agents Chemother. 38:2065-2072, 1994; Pankuch, et al., Antimicrob. Agents Chemother. 40:1653-1656, 1996).
Viability counts of antibiotic-containing suspensions were performed by plating ten-fold dilutions of 0.1 ml aliquots from each tube in sterile Mueller-t-Hinton broth onto trypticase soy agar 5% sheep blood agar plates (BBL). Recovery plates were incubated for up to 72 h. Colony Counts were performed on plates yielding 30-300 colonies. The lower limit of sensitivity of colony counts was 300 cfu/ml (Pankuch, et al., Antimicrob. Agents Chemother. 38:2065-2072, 1994; Pankuch, et al., Antimicrob. Agents Chemother. 40:1653-1656, 1996).
Time-kill assays were analysed by determining the number of strains which yielded a log10 cfu/ml of −1, −2 and −3 at 0, 3, 6, 12 and 24 h, compared to counts at time 0 h. Antimicrobials were considered bactericidal at the lowest concentration that reduced the original inoculum by ≧3 log10 cfu/ml (99.9%) at each of the time periods, and bacteriostatic if the inoculum was reduced by 0-3 log10 cfu/ml. […] The problem of bacterial carryover was addressed as described previously. For macrolide time-kill testing, only strains with MICs≦4.0 μg/ml were tested (Pankuch, et al., Antimicrob. Agents Chemother. 38:2065-9072, 1994; Pankuch, et al., Antimicrob. Agents Chemother. 40:1653-1656, 1996).

[3] = system: pneumococci (5 quinolone susceptible and 1 resistant strains); test: Post-antibiotic effect (PAE) testing; type: cell-based, Streptococcus pneumoniae
How it was run: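 Pneumococci (~5×10^6 cfu/ml) in MHB with 5% lysed horse blood were exposed 1 h at 35 °C, the quinolone-resistant strain at 5×MIC, then diluted 1:1000. Viable counts every 2 h until McFarland #1 turbidity. PAE = T − C, the 1 log10 regrowth time versus untreated control; mean of two assays ±SD.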

[4] = system: quinolone-resistant Haemophilus influenzae strains; test: Microdilution MIC determination in HTM for quinolone-resistant Haemophilus influenzae strains; type: cell-based
How it was run: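 Broth microdilution in HTM, inoculum from 24 h chocolate agar colonies by direct suspension to a final 3-8×10^5 CFU/ml. Incubated in ambient air at 35° C. for 20-24 hours; MIC read as the lowest concentration with no growth.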

[5] = 5×MIC, quinolone resistant strain
[6] = 10×MIC for 1 h, range over 5 quinolone susceptible strains
[7] = 9 quinolone-resistant Haemophilus influenzae strains

For `Cc1c(F)c(N2CCNC(C)C2)cc2c1c(=O)c(C(=O)O)cn2C1CC1` (stereo not shown) [Grepafloxacin, grepafloxacin], the “lower MICs in the presence of reserpine, fold range over affected strains” value (shortened to “lower MICs … fold range over affected strains”) [1] was 2 ×, the “number of strains with lower MICs in the presence of reserpine” value (shortened to “number of strains with lower MICs”) [1] was 3 strains and the “Number of dilutions decrease after incubation with reserpine” value (“Number of dilutions decrease” for short) ([1]; strain 5) was 2X. The “lower MIC in the presence of reserpine (efflux mechanism)” value (shortened to “lower MIC in the presence of reserpine”) ([1]; strain 5) was 2X, the “Number of dilutions decrease” value ([1]; strain 12) was 2X and the “lower MIC in the presence of reserpine” value ([1]; strain 12) was 2X. For the same compound, the “Number of dilutions decrease” value ([1]; strain 28) was 2X, the “lower MIC in the presence of reserpine” value ([1]; strain 28) was 2X and the “concentration at which bactericidal after 24 h” value ([2]; 24 h) was 4 ×MIC. It also gave a PAE [3, 5] of 1.5 h, a PAE [3, 6] of 0.3 to 2.6 h and an MIC50 [4, 7] of 1 µg/mL (≈ 2.78 µM). For the same compound, the “MIC Range” value [4, 7] was 0.25 to 4.0 µg/mL.

`N[C@@H]1[C@H]2CN(c3nc4c(cc3F)c(=O)c(C(=O)O)cn4-c3ccc(F)cc3F)C[C@@H]12` [Trovafloxacin, trovafloxacin] was tested, and the “concentration at which bactericidal after 24 h” value ([2]; 24 h) was 4 ×MIC, the “bactericidal activity for the two quinolone resistant pneumococcal strains” value [2] was “bactericidal at the microbroth MIC” and the PAE [3, 5] was 1.3 h. For the same compound, the PAE [3, 6] was 0.3 to 3.0 h, the MIC50 [4, 7] was 1 µg/mL (≈ 2.4 µM) and the “MIC Range” value [4, 7] was 0.25 to 8.0 µg/mL.

In the case of `CO/N=C1\CN(c2nc3c(cc2F)c(=O)c(C(=O)O)cn3C2CC2)CC1CN` (racemic) [Gemifloxacin, (R,S)-7-(3-aminomethyl-4-methoxyiminopyrrolidin-1-yl)-1-cyclopropyl-6-fluoro-4-oxo-1,4-dihydro-1,8-naphthyridine-3-carboxylic acid], the “lower MICs … fold range over affected strains” value [1] is reported as 2-4 ×, the “number of strains with lower MICs” value [1] is reported as 13 strains and the “Number of dilutions decrease” value ([1]; strain 1) is reported as 2X^a. For the same compound, the “lower MIC in the presence of reserpine” value ([1]; strain 1) was 2X^a, the “Number of dilutions decrease” value ([1]; strain 5) was 2X and the “lower MIC in the presence of reserpine” value ([1]; strain 5) was 2X. For the same compound, the “Number of dilutions decrease” value ([1]; strain 7) was 2X, the “lower MIC in the presence of reserpine” value ([1]; strain 7) was 2X and the “Number of dilutions decrease” value ([1]; strain 8) was 2X. For the same compound, the “lower MIC in the presence of reserpine” value ([1]; strain 8) was 2X, the “Number of dilutions decrease” value ([1]; strain 9) was 4X and the “lower MIC in the presence of reserpine” value ([1]; strain 9) was 4X. For the same compound, the “Number of dilutions decrease” value ([1]; strain 11) was 2X, the “lower MIC in the presence of reserpine” value ([1]; strain 11) was 2X and the “Number of dilutions decrease” value ([1]; strain 12) was 2X. For the same compound, the “lower MIC in the presence of reserpine” value ([1]; strain 12) was 2X, the “Number of dilutions decrease” value ([1]; strain 16) was 2X and the “lower MIC in the presence of reserpine” value ([1]; strain 16) was 2X. For the same compound, the “Number of dilutions decrease” value ([1]; strain 17) was 2X, the “lower MIC in the presence of reserpine” value ([1]; strain 17) was 2X and the “Number of dilutions decrease” value ([1]; strain 23) was 2X. The “lower MIC in the presence of reserpine” value ([1]; strain 23) was 2X, the “Number of dilutions decrease” value ([1]; strain 25) was 2x X and the “lower MIC in the presence of reserpine” value ([1]; strain 25) was 2x X. The “Number of dilutions decrease” value ([1]; strain 26) was 2x X, the “lower MIC in the presence of reserpine” value ([1]; strain 26) was 2x X and the “Number of dilutions decrease” value ([1]; strain 28) was 4x X. For the same compound, the “lower MIC in the presence of reserpine” value ([1]; strain 28) was 4x X, the “concentration at which bactericidal after 24 h” value ([2]; 24 h) was 2 ×MIC and the “concentration at which uniformly bactericidal after 24 h” value ([2]; all 12 strains, 24 h) was no more than 0.5 µg/mL. The “bactericidal activity for the two quinolone resistant pneumococcal strains” value [2] was “bactericidal at the microbroth MIC”, the PAE [3, 5] was 0.9 h and the PAE [3, 6] was 0.4 to 1.6 h. For the same compound, the MIC50 [4, 7] was 0.25 µg/mL (≈ 0.642 µM), the “MIC Range” value [4, 7] was 0.03 to 1.0 µg/mL and the “MIC Range” value ([4]; 9 quinolone-resistant Haemophilus influenzae strains, listed as gemifloxacin) was no more than 1.0 µg/mL. For the same compound, the MIC ([4]; 9 quinolone-resistant Haemophilus influenzae strains, read-out: highest MIC) was 1 µg/mL (≈ 2.57 µM), the MIC ([4]; Haemophilus influenzae, read-out: MICs, strain 1, GyrA S84→L, ParC S133→A N138→S, GyrB None, ParE None) was 0.03 µg/mL (≈ 0.077 µM) and the MIC ([4]; Haemophilus influenzae, read-out: MICs, strain 2, GyrA S84→F, ParC None, GyrB None, ParE S458→L) was 0.125 µg/mL (≈ 0.321 µM). The MIC ([4]; Haemophilus influenzae, read-out: MICs, strain 3, GyrA S84→L, ParC S84→I, GyrB None, ParE None) was 0.125 µg/mL (≈ 0.321 µM), the MIC ([4]; Haemophilus influenzae, read-out: MICs, strain 4, GyrA S84→F D88→N, ParC D83→N, GyrB None, ParE T459→S) was 0.25 µg/mL (≈ 0.642 µM) and the MIC ([4]; Haemophilus influenzae, read-out: MICs, strain 5, GyrA S84→Y, ParC E88→K, GyrB Q468→R, ParE G405→S) was 0.25 µg/mL (≈ 0.642 µM). The MIC ([4]; Haemophilus influenzae, read-out: MICs, strain 6, GyrA S84→L A117→E, ParC S84→R, GyrB None, ParE D420→N) was 0.5 µg/mL (≈ 1.28 µM), the MIC ([4]; Haemophilus influenzae, read-out: MICs, strain 7, GyrA S84→L A117→E, ParC S84→R, GyrB None, ParE D420→N) was 0.5 µg/mL (≈ 1.28 µM) and the MIC ([4]; Haemophilus influenzae, read-out: MICs, strain 8, GyrA S84→L A117→E, ParC S84→R, GyrB None, ParE D420→N) was 0.5 µg/mL (≈ 1.28 µM).

In the case of `C[C@@H]1CN(c2c(F)c(N)c3c(=O)c(C(=O)O)cn(C4CC4)c3c2F)C[C@H](C)N1` [Sparfloxacin, sparfloxacin], the “lower MICs … fold range over affected strains” value [1] is reported as 2 ×, the “number of strains with lower MICs” value [1] is reported as “one” and the “Number of dilutions decrease” value ([1]; strain 5) is reported as 2X. The “lower MIC in the presence of reserpine” value ([1]; strain 5) was 2X, the “concentration at which bactericidal after 24 h” value ([2]; 24 h) was 2 ×MIC and the PAE [3, 5] was 1.5 h. The PAE [3, 6] was 0.3 to 2.0 h, the MIC50 [4, 7] was 1 µg/mL (≈ 2.55 µM) and the “MIC Range” value [4, 7] was 0.25 to 8.0 µg/mL.
